The text below walks through data of PubChem BioAssay (NCI).

The TGI is the concentration giving total growth inhibition. Low values mean more potent growth arrest, high ones less potent growth arrest. Usually GI50 stands for the concentration at which growth is held to half of that of the control.

Some test systems named below: ACHN renal; SNB-75 CNS; SF-295 CNS; UACC-62 melanoma; U251 CNS; IGROV1 ovarian; SR leukemia; BT-549 breast.
Assay in all cases: DTP human tumour cell line panel, 48 h

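Tested at 5 concentrations; 48 h exposure; 96-well plates; endpoints linearly interpolated, else capped at highest concentration. GI50: concentration for 50% inhibition of growth. TGI is the concentration that stops growth completely.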

Consider `C#Cc1cccc(NC(=O)/C=C\C(=O)O)c1`, for which the TGI with ACHN renal, in the assay with SNB-75 CNS, in the assay on SF-295 CNS, with UACC-62 melanoma and in the assay with U251 CNS was over 100 µM throughout.
For the compound `Cc1ccc(-n2c3nc(=O)n(C)c(=O)c-3nc3ccccc32)c(C)c1`, the TGI came to 15.8 µM in the assay with ACHN renal; 26.7 µM with SNB-75 CNS; 36.4 µM with IGROV1 ovarian; 22.9 µM with SF-295 CNS; 5.49 µM with UACC-62 melanoma; 32.1 µM in the assay with U251 CNS.
For `CS(=O)(=O)OCCN1CCN(C(=O)c2ccc(Cl)c3c(Nc4ccc(S(=O)(=O)N=C(N)N)cc4)c4ccccc4nc23)CC1`, the TGI in the assay on ACHN renal, with SNB-75 CNS, in the assay with IGROV1 ovarian, in the assay on SF-295 CNS, in the assay on UACC-62 melanoma and in the assay on U251 CNS was over 100 µM throughout. The TGI in the assay with SR leukemia was over 100 µM.
For `CCOC1c2nc3ccccc3nc2-c2ccccc2N1C(C)=O` (stereo not drawn), the TGI in the assay with ACHN renal, in the assay with SNB-75 CNS, with IGROV1 ovarian, with SF-295 CNS, with UACC-62 melanoma and in the assay with U251 CNS was over 100 µM throughout. Further, the TGI with SR leukemia is over 100 µM.
Consider `CC(C)(C)C1=NO[C@H]2[C@@H](NC(=O)c3ccccc3)CC[C@@H]12`, for which the total growth inhibition concentration (TGI) in the assay on ACHN renal, in the assay with SNB-75 CNS, in the assay with IGROV1 ovarian, with SF-295 CNS, with UACC-62 melanoma and with U251 CNS was over 100 µM throughout. The compound further had a TGI in the assay on SR leukemia of over 100 µM.
In the case of `CC(C)(C)OC(=O)N[C@H]1CC(=O)c2ccccc2N(CC(=O)O)C1=O`, the TGI in the assay with ACHN renal, in the assay on SNB-75 CNS, in the assay with IGROV1 ovarian, in the assay on SF-295 CNS and with UACC-62 melanoma was over 100 µM each time.
As for `COC(=O)C1CCC(C)CC1=O` (stereo not drawn), the TGI in the assay on ACHN renal, in the assay on SNB-75 CNS, in the assay on IGROV1 ovarian, in the assay with SF-295 CNS, in the assay on UACC-62 melanoma and in the assay on U251 CNS was over 100 µM each time.
Regarding `O=C1OC(=O)c2c1nc1ccccc1c2-c1ccccc1`, the TGI in the assay with ACHN renal, in the assay on SNB-75 CNS, in the assay on IGROV1 ovarian, in the assay on SF-295 CNS, with UACC-62 melanoma and in the assay on U251 CNS was over 100 µM each time. The compound also yielded a TGI in the assay with SR leukemia of over 100 µM.
`CCc1c(OC(C)=O)c2c(NC3OC(COC(C)=O)C(OC(C)=O)C(OC(C)=O)C3OC(C)=O)nc(SC)nc2oc1=O` (stereo not drawn): the TGI in the assay with ACHN renal, in the assay on SNB-75 CNS, in the assay with IGROV1 ovarian, with SF-295 CNS, in the assay on UACC-62 melanoma and in the assay with U251 CNS was over 100 µM in each case.
As for `CCC(Oc1ccc(OC)c2c1C(=O)CCC2)C(=O)O` (stereo not drawn), the TGI in the assay on ACHN renal, in the assay with SNB-75 CNS, in the assay on IGROV1 ovarian, in the assay on SF-295 CNS, with UACC-62 melanoma and with U251 CNS was over 100 µM each time. For the same compound, in the assay on SR leukemia, the TGI is over 100 µM.
For the compound `OCC1OC(OC2(CO)OC(CO)C(O)C2O)C(O)C(O)C1O` (stereo not drawn), the GI50 in the assay on BT-549 breast, in the assay with ACHN renal, with SNB-75 CNS, with IGROV1 ovarian, in the assay on SF-295 CNS and in the assay on UACC-62 melanoma was over 100 µM throughout. Besides, the GI50 in the assay with U251 CNS and in the assay on SR leukemia was over 100 µM throughout. Moreover, the TGI with BT-549 breast, in the assay on ACHN renal, with SNB-75 CNS, in the assay on IGROV1 ovarian, with SF-295 CNS and in the assay with UACC-62 melanoma was over 100 µM throughout. Also, the TGI in the assay with U251 CNS and with SR leukemia was over 100 µM in each case.
For the compound `CNC(=O)OCc1nc(SSc2nc(COC(=O)NC)c(COC(=O)NC)n2C)n(C)c1COC(=O)NC`, the TGI in the assay with ACHN renal, in the assay on SNB-75 CNS, in the assay with IGROV1 ovarian, in the assay with SF-295 CNS, with UACC-62 melanoma and with U251 CNS was over 100 µM in each case. The same compound displayed a TGI in the assay with SR leukemia of over 100 µM.
As for `O=C1C2C(C(=O)N1Cc1ccccc1)N(Cc1ccccc1)C(=O)N2Cc1ccccc1` (stereo not drawn), the TGI in the assay on ACHN renal, with SNB-75 CNS, in the assay on IGROV1 ovarian, in the assay with SF-295 CNS, in the assay on UACC-62 melanoma and in the assay with U251 CNS was over 100 µM in each case. For the same compound, the TGI in the assay on SR leukemia is over 100 µM.
Take `CCOC(=O)C1C(c2ccc(Br)cc2)N(Cc2ccccc2)C(c2ccc(Br)cc2)C(C(=O)OC)S1(=O)=O` (stereo not drawn): the TGI in the assay with ACHN renal was over 100 µM; with SNB-75 CNS, 57.3 µM; in the assay with IGROV1 ovarian, over 100 µM; with SF-295 CNS, over 100 µM; in the assay on UACC-62 melanoma it was over 100 µM; with SR leukemia it was over 100 µM.
`COS(=O)c1cc(Cl)cc(Cl)c1OC(=O)CSSCC(=O)Oc1c(Cl)cc(Cl)cc1S(=O)OC` (stereo not drawn): the TGI stood at 64.2 µM with ACHN renal; 80.1 µM with SNB-75 CNS; 46.5 µM in the assay with IGROV1 ovarian; 67.5 µM in the assay on SF-295 CNS; 21.4 µM with UACC-62 melanoma; 20.6 µM with U251 CNS.
Take `O=C([O-])c1ccc([I+]c2ccccc2)cc1`: the TGI in the assay on SNB-75 CNS, with IGROV1 ovarian, in the assay on SF-295 CNS, in the assay on UACC-62 melanoma, in the assay with U251 CNS and with SR leukemia was over 100 µM throughout.
For `O=C1C=CC2(CCC23C=CC(=O)O3)O1` (stereo not drawn), the TGI with ACHN renal, with SNB-75 CNS, in the assay with IGROV1 ovarian, with SF-295 CNS, in the assay with UACC-62 melanoma and with U251 CNS was over 100 µM throughout.
As for `CCCCCCCCCCCCCCCC(=O)OCC1OC(n2cc(F)c(=O)[nH]c2=O)C(NC(=O)OCc2ccccc2)C(O)C1O` (stereo not drawn), the TGI in the assay on ACHN renal is over 100 µM; with SNB-75 CNS, 37.5 µM; in the assay on IGROV1 ovarian, 46.6 µM; in the assay with SF-295 CNS, 32.5 µM; with UACC-62 melanoma, 35.3 µM; with U251 CNS it was 31.4 µM.
